From ChEMBL document CHEMBL1128059, “Kelatorphan and related analogs: potent and selective inhibitors of leukotriene A4 hydrolase” (Bioorg Med Chem Lett, 1995)

Assays:
[1] = biological target: T1, Leukotriene A-4 hydrolase (Homo sapiens, UniProt P09960); test: Inhibitory activity against recombinant human Leukotriene A4 hydrolase
T1 sequence (P09960 whole entry): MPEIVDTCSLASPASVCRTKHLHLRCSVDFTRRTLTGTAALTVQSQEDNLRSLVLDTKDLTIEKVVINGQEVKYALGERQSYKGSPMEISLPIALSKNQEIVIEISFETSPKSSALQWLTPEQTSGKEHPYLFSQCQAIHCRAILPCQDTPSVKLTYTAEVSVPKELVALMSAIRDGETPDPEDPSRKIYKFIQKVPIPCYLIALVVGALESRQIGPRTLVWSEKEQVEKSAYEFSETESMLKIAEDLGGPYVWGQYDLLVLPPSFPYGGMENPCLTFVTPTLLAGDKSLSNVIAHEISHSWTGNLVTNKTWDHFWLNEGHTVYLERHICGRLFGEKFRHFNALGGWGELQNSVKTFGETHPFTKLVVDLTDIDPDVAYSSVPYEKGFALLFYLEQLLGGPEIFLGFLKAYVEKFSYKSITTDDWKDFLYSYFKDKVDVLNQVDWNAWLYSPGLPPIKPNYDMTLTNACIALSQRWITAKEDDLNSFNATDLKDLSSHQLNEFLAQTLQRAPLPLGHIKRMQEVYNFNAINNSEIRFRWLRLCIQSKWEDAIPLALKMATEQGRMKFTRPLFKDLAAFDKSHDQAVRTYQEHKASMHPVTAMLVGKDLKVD

[2] = Inhibitory activity against aminopeptidase
[3] = biological target: T2, Angiotensin-converting enzyme (Oryctolagus cuniculus, UniProt P12822); test: Inhibitory activity against rabbit lung angiotensin-converting enzyme(ACE)
T2 sequence (P12822 whole entry): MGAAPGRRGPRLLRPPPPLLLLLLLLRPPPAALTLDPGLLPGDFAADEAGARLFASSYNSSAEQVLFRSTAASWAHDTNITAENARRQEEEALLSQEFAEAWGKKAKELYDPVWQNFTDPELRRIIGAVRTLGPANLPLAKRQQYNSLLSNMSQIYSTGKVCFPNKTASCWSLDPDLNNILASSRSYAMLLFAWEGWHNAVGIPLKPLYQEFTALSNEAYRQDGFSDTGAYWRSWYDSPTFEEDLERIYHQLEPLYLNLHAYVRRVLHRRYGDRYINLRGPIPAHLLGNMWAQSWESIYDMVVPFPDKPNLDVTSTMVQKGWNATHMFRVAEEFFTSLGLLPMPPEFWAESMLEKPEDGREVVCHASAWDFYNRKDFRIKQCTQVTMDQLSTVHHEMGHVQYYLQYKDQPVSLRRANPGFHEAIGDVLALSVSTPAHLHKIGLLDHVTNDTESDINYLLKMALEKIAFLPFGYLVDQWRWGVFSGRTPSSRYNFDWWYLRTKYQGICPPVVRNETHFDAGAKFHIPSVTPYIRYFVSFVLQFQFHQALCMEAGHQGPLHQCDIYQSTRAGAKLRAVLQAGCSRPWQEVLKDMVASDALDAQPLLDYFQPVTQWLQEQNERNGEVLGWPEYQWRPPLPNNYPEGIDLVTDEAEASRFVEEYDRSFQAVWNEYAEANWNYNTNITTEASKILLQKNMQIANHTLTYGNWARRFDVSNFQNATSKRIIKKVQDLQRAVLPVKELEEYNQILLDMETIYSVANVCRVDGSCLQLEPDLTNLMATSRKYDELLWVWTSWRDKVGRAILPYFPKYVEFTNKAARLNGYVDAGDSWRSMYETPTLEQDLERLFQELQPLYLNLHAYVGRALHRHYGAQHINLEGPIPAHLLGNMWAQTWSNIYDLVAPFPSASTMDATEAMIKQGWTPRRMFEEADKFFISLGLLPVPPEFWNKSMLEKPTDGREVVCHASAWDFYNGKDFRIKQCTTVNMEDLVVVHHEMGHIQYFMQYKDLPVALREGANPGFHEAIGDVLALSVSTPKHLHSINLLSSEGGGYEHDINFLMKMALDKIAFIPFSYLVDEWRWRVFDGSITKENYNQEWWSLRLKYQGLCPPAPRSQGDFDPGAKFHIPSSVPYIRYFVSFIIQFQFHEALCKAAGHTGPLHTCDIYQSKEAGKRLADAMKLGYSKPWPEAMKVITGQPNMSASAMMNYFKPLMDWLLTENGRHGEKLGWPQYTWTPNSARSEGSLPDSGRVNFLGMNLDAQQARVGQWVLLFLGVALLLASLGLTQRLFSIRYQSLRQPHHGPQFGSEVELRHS

Neprilysin = biological target: T3, Neprilysin (Oryctolagus cuniculus, UniProt P08049); test: Inhibitory activity against rabbit kidney neutral endopeptidase (NEP)
T3 sequence (P08049 whole entry): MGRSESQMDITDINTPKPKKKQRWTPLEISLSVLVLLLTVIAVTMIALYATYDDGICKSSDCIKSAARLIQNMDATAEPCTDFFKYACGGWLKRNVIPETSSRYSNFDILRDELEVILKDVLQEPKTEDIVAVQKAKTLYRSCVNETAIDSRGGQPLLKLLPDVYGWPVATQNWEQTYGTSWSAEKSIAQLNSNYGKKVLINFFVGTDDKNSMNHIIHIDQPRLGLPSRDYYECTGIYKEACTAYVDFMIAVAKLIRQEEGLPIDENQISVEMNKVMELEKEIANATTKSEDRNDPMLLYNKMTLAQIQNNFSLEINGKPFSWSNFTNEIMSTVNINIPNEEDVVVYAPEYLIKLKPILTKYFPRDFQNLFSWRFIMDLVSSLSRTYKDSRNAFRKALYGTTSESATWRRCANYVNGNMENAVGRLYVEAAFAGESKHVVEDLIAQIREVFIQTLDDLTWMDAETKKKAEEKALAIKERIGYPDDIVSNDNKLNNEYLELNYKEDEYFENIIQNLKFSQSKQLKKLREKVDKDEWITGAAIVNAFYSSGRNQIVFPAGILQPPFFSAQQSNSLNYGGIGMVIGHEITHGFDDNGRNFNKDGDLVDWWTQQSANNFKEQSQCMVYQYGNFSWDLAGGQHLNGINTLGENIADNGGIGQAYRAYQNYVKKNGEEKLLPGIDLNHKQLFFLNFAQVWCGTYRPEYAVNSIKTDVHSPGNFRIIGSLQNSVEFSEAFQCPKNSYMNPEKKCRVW

[4] = biological target: T2, Angiotensin-converting enzyme; test: Inhibitory activity against rabbit lung angiotensin-converting enzyme (ACE)
[5] = biological target: T1, Leukotriene A-4 hydrolase; test: Inhibitory activity against LTA 4 hydrolase in aminopeptidase assay
[6] = biological target: T1, Leukotriene A-4 hydrolase; test: Inhibitory activity against LTA 4 hydrolase in epoxide hydrolase assay

## C[C@H](CS)C(=O)N1CCC[C@H]1C(=O)O [CAPTOPRIL]
[1]
  IC50: 10000 nM
[2]
  IC50: 2000 nM

## O=C(C[C@@H](Cc1ccccc1)C(=O)N1CCCC[C@@H]1C(=O)O)NO
[1]
  IC50: 1800 nM
[3]
  IC50: > 100 µM
[2]
  IC50: 2300 nM

## O=C(C[C@@H](Cc1ccccc1)C(=O)N[C@@H](CC1CCCCC1)C(=O)O)NO
[1]
  IC50: 10 nM
Neprilysin
  IC50: 104 µM
[3]
  IC50: > 100 µM
[2]
  IC50: 42 nM

## C[C@@H](C(=O)O)N(C)C(=O)[C@@H](CC(=O)NO)Cc1ccccc1
[1]
  IC50: 3 nM
Neprilysin
  IC50: 3.4 µM
[3]
  IC50: > 100 µM
[2]
  IC50: 1 nM

## O=C(C[C@@H](Cc1ccccc1)C(=O)N1CCC[C@@H]1C(=O)O)NO
[1]
  IC50: 20000 nM
[2]
  IC50: 15000 nM
[4]
  IC50: > 100 µM

## O=C(C[C@@H](Cc1ccccc1)C(=O)N1CCC[C@H]1C(=O)O)NO
[1]
  IC50: 30 nM
Neprilysin
  IC50: > 36 µM
[2]
  IC50: 18 nM
[4]
  IC50: 3 µM

## C[C@H](NC(=O)C(CS)Cc1ccccc1)C(=O)O (stereo not given in full)
[1]
  IC50: > 3000 nM
[3]
  IC50: 0.2 µM
[2]
  IC50: > 10000 nM

## O=C(C[C@@H](Cc1ccccc1)C(=O)N[C@@H](Cc1c[nH]c2ccccc12)C(=O)O)NO
[1]
  IC50: 10 nM
[2]
  IC50: 5 nM

## C[C@H](NC(=O)[C@@H](CCS)CC1CCCCC1)C(=O)O
[1]
  IC50: > 3000 nM
Neprilysin
  IC50: > 100 µM

## C[C@H](NC(=O)[C@@H](CC(=O)O)Cc1ccccc1)C(=O)O
[1]
  IC50: 300 nM
[3]
  IC50: > 100 µM
[2]
  IC50: 140 nM

## CSCC[C@@H](NC(=O)[C@@H](CC(=O)NO)Cc1ccccc1)C(=O)O
[1]
  IC50: 12 nM
Neprilysin
  IC50: 61 µM
[3]
  IC50: 20 µM
[2]
  IC50: 2 nM

## C[C@H](NC(=O)[C@@H](CC(=O)NO)CC1CCCCC1)C(=O)O
[1]
  IC50: 5 nM
Neprilysin
  IC50: 2 µM
[3]
  IC50: > 100 µM
[2]
  IC50: 10 nM

## O=C(C[C@@H](Cc1ccccc1)C(=O)N1CCCC[C@H]1C(=O)O)NO
[1]
  IC50: 8 nM
Neprilysin
  IC50: 17 µM
[3]
  IC50: 40 µM
[2]
  IC50: 10 nM

## C[C@H](NC(=O)[C@@H](CCC(=O)NO)Cc1ccccc1)C(=O)O
[1]
  IC50: > 10000 nM
[3]
  IC50: 20 µM

## C[C@H](NC(=O)[C@@H](CC(=O)NO)Cc1ccccc1)C(=O)O [KELATORPHAN]
[5]
  Ki: 10 nM
[1]
  IC50: 5 nM
[6]
  Ki: 18 nM
Neprilysin
  IC50: 0.046 µM
[2]
  IC50: 7 nM
[4]
  IC50: > 10 µM
